Laboratory results from article PMC6276119 (Biochemistry, 2016).

Target: AtHCT (Arabidopsis thaliana, UniProt Q9FI78)
Experiment: X-ray crystal structure
Format: binding

AtHCT, sequence (Q9FI78 whole entry): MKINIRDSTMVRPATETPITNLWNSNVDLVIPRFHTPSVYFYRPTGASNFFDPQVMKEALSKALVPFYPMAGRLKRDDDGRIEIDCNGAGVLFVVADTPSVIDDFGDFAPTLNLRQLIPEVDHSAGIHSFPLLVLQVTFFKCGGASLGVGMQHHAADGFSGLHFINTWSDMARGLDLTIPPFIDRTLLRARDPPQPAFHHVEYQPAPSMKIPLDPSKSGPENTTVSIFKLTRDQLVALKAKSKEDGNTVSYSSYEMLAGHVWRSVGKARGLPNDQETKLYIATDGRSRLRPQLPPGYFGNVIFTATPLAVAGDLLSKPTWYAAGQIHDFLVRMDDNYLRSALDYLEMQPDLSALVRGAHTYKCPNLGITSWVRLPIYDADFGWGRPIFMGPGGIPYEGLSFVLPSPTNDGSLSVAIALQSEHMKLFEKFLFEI

Row | SMILES | X-ray crystal structure (soaked crystal) (soaked with p-coumaroyl CoA in water) | X-ray crystal structure (soaked crystal) (acyl acceptor site, soaked with p-coumaroylshikimate in DMSO)
1 | CC(C)(COP(=O)(O)OP(=O)(O)OC[C@H]1O[C@@H](n2cnc3c(N)ncnc32)[C@H](O)[C@@H]1OP(=O)(O)O)[C@@H](O)C(=O)NCCC(=O)NCCSC(=O)/C=C/c1ccc(O)cc1 [p-coumaroyl CoA] | apo-, p-coumaroyl CoA-bound, and p-coumaroyl shikimate-bound AtHCT | –
2 | O=C(/C=C/c1ccc(O)cc1)O[C@@H]1CC(C(=O)O)=C[C@@H](O)[C@H]1O [p-coumaroylshikimate] | – | apo-, p-coumaroyl CoA-bound, and p-coumaroyl shikimate-bound AtHCT
